Data set [1] deals with T1, Cathepsin G (Mus musculus) (UniProt P28293).
T1 sequence (whole entry): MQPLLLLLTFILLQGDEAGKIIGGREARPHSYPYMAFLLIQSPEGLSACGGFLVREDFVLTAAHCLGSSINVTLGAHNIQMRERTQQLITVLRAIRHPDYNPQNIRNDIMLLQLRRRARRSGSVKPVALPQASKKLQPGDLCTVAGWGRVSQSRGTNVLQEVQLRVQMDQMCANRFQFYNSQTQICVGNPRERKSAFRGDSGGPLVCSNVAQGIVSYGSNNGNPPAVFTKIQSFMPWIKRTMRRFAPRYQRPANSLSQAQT
As to the kind of experiment: Induction of Cathepsin G degradation in C57BL/6 mouse bone marrow cells assessed as remaining activity at 10 uM incubated for 12 hrs by Western blot analysis relative to control. The format is cell-based. The following applies: Bone marrow cell. Background: Immunoblotting shows a protein as a band on a membrane.

Data set [2] can be described thus: MRT in male Sprague-Dawley rat at 2 mg/kg, iv measured at 5 to 1440 mins by LC-MS/MS analysis. The format is ADME, organism-based. Conditions: in vivo, time 5-1440 min.
The target in data set [3] is Voltage-gated inwardly rectifying potassium channel KCNH2 (Homo sapiens, UniProt Q12809). As to the kind of experiment: Inhibition of hERG. The format is toxicity. A general note: The hERG channel carries a current that helps repolarise heart muscle cells.
Another data set addresses Dipeptidyl peptidase 1 (Homo sapiens, UniProt P53634). In words: Induction of thermal stabilization of Cathepsin C in human U-937 cell incubated for 1 hrs at 37 to 65 degreeC by CETSA based Western blot analysis. Conditions: dose 10-20 µM.
Data set [4] in a line: Acute toxicity in ICR mouse assessed as heart pathological change at 1500 mg/kg, po administered daily for 7 days by H and E staining based analysis. The format is organism-based. Conditions: in vivo, 168 h, time 7 day.
Data set [5] concerns the target T2, Cathepsin G (Homo sapiens) (UniProt P08311).
T2 sequence (whole entry): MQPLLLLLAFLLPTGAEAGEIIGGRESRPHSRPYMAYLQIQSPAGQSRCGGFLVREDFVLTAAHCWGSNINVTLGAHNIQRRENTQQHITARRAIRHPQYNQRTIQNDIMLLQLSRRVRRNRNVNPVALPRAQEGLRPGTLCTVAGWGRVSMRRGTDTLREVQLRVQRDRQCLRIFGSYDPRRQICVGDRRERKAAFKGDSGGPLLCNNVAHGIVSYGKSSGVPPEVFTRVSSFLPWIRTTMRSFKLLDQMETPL
As to the kind of experiment: Inhibition of Cathepsin G in human U-937 cells using N-Suc-Ala-Ala-Pro-Phe-pNA as substrate at 10 uM incubated for 5 days by […] based microplate reader analysis relative to control. The format is cell-based. Conditions: time 5.0 day.

Data set [6] in a line: Acute toxicity in ICR mouse assessed as change in white blood cell count in blood at 1500 mg/kg, po administered daily for 7 days. The format is organism-based. The following applies: in vivo, 168 h, time 7 day.
Data set [7] concerns the target T3, Neutrophil elastase (Mus musculus) (UniProt Q3UP87).
T3 sequence (whole entry): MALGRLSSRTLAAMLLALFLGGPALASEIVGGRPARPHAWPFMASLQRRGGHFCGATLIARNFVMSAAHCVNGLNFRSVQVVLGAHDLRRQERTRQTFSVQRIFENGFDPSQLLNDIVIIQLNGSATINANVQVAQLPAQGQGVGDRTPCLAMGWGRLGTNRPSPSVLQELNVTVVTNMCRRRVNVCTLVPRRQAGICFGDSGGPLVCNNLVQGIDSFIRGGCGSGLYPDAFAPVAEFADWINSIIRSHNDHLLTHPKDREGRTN
As to the kind of experiment: Induction of neutrophil elastase degradation in C57BL/6 mouse bone marrow cells at 10 uM incubated for 24 hrs by Western blot analysis. The format is cell-based. Conditions: Bone marrow cell.

Data set [8] relates to Mus musculus. In words: Anti-inflammatory activity in DSS-induced ulcerative colitis male C57BL/6 mouse model at 60 mg/kg administered twice daily. The format is functional, organism-based.
Data set [9] in a line: AUC (0 to infinity) in male Sprague-Dawley rat at 10 mg/kg, po measured at 5 to 1440 mins by LC-MS/MS analysis. The format is ADME, organism-based. Conditions: in vivo, time 5-1440 min.
Data set [10] deals with Mus musculus. In words: Anti-inflammatory activity in DSS-induced ulcerative colitis male C57BL/6 mouse model assessed as reduction in neutrophil elastase level in serum at 60 mg/kg administered via gavage for 10 days relative to control. More on the design: scale not given: the % may be the effect or the level left. The following applies: time 10 day. The format is functional.

In data set [11] the test system is Mus musculus. In words: Anti-inflammatory activity in DSS-induced ulcerative colitis male C57BL/6 mouse model assessed as reduction in Cathepsin C level in colon at 15 to 30 mg/kg administered via gavage for 10 days. The format is functional, organism-based. Conditions: dose 15-30 mg/kg, time 10.0 day.
The target of data set [12] is T4, Dipeptidyl peptidase 1 (Mus musculus) (UniProt P97821).
T4 sequence (whole entry): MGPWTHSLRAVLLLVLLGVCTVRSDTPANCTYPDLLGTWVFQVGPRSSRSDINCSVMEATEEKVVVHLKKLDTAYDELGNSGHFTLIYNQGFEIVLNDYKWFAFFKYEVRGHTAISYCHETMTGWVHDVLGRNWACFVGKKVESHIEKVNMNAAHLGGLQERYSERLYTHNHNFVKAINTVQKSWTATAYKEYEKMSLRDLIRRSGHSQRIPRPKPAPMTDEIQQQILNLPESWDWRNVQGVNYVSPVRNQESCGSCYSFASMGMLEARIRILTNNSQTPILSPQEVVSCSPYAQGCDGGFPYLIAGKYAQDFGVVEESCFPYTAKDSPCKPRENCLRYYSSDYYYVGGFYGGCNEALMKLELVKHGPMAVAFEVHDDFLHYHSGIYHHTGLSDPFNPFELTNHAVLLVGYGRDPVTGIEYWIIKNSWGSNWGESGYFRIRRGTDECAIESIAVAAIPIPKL
In words: In vivo inhibition of Cathepsin C in C57BL/6 mouse assessed as reduction in cathepsin C activity in bone marrow administered orally once daily for 6 days by fluorescence based microplate reader. The following applies: dose 5-30 mg/kg, route po, time 6.0 day. The format is functional, organism-based.

Data set [13] can be described thus: Tmax in male Sprague-Dawley rat at 10 mg/kg, po measured at 5 to 1440 mins by LC-MS/MS analysis. The format is ADME, organism-based. The following applies: in vivo, time 5-1440 min.
The target of data set [14] is T3, Neutrophil elastase (Mus musculus). As to the kind of experiment: Induction of neutrophil elastase degradation in C57BL/6 mouse bone marrow cells assessed as residual activity at 10 uM incubated for 48 hrs by Western blot analysis relative to control. The format is cell-based. Conditions: Bone marrow cell.
Data set [15] deals with Mus musculus. As to the kind of experiment: Anti-inflammatory activity in DSS-induced ulcerative colitis male C57BL/6 mouse model assessed as reduction in proteinase 3 level in colon at 60 mg/kg administered via gavage for 10 days relative to control. Conditions: time 10 day. The format is functional. More on the design: scale not given: the % may be the effect or the level left.

Data set [16] addresses T3, Neutrophil elastase (Mus musculus). In words: In vivo inhibition of neutrophil elastase in C57BL/6 mouse assessed as reduction in neutrophil elastase activity in blood at 30 mg/kg, po administered once daily for 6 days by fluorescence based microplate reader relative to control. The format is functional, organism-based. Conditions: time 6.0 day.
In data set [17] the test system is Mus musculus. In words: Anti-inflammatory activity in DSS-induced ulcerative colitis male C57BL/6 mouse model assessed as reduction in inflammatory epithelial destruction in colon at 60 mg/kg administered via gavage for 10 days by H and E staining based analysis. The format is functional, organism-based. Conditions: time 10.0 day.
Data set [18] can be described thus: Acute toxicity in ICR mouse assessed as kidney pathological change at 1500 mg/kg, po administered daily for 7 days by H and E staining based analysis. The format is organism-based. Conditions: in vivo, 168 h, time 7 day.
A short description of data set [19]: Cmax in male Sprague-Dawley rat at 10 mg/kg, po measured at 5 to 1440 mins by LC-MS/MS analysis. The format is ADME, organism-based. Conditions: in vivo, time 5-1440 min.
A further data set has as its system RAW264.7. In words: Anti-inflammatory activity in LPS-stimulated mouse RAW264.7 cells assessed as reduction in TNF-alpha production incubated for 24 hrs by ELISA. Conditions: dose 0.62-5 µM. The format is functional, cell-based. (ELISA stands for enzyme-linked immunosorbent assay.)

Calls of active or inactive are those of the source. No cut-off for these calls is given here. Some results are limits rather than exact numbers.

Sequence of Voltage-gated inwardly rectifying potassium channel KCNH2 (Q12809 whole entry): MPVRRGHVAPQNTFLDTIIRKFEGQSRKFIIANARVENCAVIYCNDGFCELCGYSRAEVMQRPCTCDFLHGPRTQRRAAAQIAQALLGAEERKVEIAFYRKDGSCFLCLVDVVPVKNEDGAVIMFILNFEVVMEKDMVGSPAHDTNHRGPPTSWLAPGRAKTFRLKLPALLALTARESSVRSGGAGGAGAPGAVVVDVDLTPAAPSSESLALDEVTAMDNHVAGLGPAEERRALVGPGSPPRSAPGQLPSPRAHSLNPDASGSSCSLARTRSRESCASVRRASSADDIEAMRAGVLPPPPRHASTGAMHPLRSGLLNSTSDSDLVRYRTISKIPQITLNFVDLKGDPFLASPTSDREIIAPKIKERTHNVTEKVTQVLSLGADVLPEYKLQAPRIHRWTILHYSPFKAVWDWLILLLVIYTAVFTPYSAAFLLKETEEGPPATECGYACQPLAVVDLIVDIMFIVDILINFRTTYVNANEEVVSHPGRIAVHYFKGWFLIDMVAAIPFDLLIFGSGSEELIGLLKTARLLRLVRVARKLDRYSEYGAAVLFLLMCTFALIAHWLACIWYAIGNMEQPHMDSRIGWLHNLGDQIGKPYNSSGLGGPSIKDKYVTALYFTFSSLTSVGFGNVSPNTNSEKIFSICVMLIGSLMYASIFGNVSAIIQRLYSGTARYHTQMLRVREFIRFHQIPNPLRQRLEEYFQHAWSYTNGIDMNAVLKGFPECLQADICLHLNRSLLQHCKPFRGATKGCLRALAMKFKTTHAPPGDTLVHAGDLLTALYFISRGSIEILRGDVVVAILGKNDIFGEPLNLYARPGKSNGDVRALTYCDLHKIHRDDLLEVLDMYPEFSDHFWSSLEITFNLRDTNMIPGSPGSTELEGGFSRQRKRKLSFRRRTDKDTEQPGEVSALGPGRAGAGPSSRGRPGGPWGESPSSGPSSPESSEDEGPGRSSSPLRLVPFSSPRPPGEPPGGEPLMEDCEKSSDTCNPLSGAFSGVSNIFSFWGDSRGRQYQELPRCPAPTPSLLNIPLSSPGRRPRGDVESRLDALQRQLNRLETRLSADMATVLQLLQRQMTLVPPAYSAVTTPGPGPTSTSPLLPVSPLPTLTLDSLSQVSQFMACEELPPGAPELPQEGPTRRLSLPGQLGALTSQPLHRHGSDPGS
Sequence of Dipeptidyl peptidase 1 (P53634 25-134 limits assumed): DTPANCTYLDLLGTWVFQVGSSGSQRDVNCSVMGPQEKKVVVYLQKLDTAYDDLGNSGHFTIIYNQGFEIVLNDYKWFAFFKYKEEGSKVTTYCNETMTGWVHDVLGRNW
Sequence of Dipeptidyl peptidase 1 (P53634 231-394 limits assumed): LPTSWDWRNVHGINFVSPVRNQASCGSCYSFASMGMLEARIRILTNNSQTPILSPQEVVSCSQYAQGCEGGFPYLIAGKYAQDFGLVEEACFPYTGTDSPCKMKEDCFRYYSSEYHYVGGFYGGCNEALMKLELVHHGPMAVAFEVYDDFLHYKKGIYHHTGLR
Sequence of Dipeptidyl peptidase 1 (P53634 395-463 limits assumed): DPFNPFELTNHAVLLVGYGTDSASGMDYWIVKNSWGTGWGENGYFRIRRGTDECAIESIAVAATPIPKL

In general, MRT refers to the average time that molecules of a dose stay in the body. What is called IC50 is the concentration that inhibits the measured activity by half. In general, inhibition refers to the change of the read-out against control, counted positive when it falls. A word on the AUC: it is the area under the concentration-time curve, a measure of exposure. Broadly, the Tmax is the time from dosing to the highest level. As usually defined, the Cmax is the highest concentration seen after dosing. Consider `O=C1Nc2c(cccc2-c2ccc(NC3CCOCC3)cc2)/C1=C/c1ccnc2ccccc12`, for which the Activity was 75% in data set [1]; “Dose-dependent-effect; Significant Thermal Stability Observed” at Dipeptidyl peptidase 1; “Non-toxic” in data set [4]; “Non-toxic” in data set [6]; “Active; Therapeutic Effect Is Slightly Better Than 5-Asa But Worse Than Azd7986” in the data set with Mus musculus [8]; 52% in the data set on Mus musculus [10]. Also, the Activity in [14] is 6.65%; in the data set on Mus musculus [15], 47%; in [18], “Non-toxic”; in the data set with RAW264.7, “Dose-dependent-effect”. In data set [2], this molecule registered an MRT of 628.8 min. The same molecule showed an IC50 in [3] greater than 30 µM. In addition, the inhibition in [5] was 17.2%; in data set [12] it was “Dose-dependent-effect”; in data set [16], 42.9%. The outcome (in [7]; in the data set on Mus musculus [17]) was Active. Besides, the AUC in [9] is 407.54 ng·h/mL. The outcome in the data set on Mus musculus [11] was inactive. Moreover, in data set [13], the Tmax amounted to 39.6 min. In data set [19], the peak level (Cmax) was 158 ng/mL.

Source of the values: ChEMBL document CHEMBL6092168, “Identification of novel indolinone derivatives as CTSC inhibitors to treat inflammatory bowel disease by modulating inflammatory factors” (Eur J Med Chem, 2024).
